Data reported in ChEMBL document CHEMBL1201862, “PubChem BioAssay data set” (2004).
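Step 1: Grow cells in 96-well plates. Step 2: Expose to compound for 48 hours at 5 concentrations. Step 3: Interpolate endpoints linearly; if unreached, use highest concentration. At the GI50, growth is halved.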 Activity calls are given as the source filed them. No stated cut-off is given here; in the data, active = GI50 up to about 1.1 µM and inactive = higher.

How the values were obtained:
Assay in all cases: DTP human tumour cell line panel, 48 h
MDA-N = test system: MDA-N
HT-29 = test system: HT-29
HOP-92 = test system: HOP-92
NCI/ADR-RES = test system: NCI/ADR-RES
OVCAR-8 = test system: OVCAR-8
NCI-H226 = test system: NCI-H226
M14 = test system: M14
HOP-62 = test system: HOP-62
HCT-15 = test system: HCT-15
MOLT-4 = test system: MOLT-4
SF-295 = test system: SF-295
TK-10 = test system: TK-10
IGROV-1 = test system: IGROV-1
SK-OV-3 = test system: SK-OV-3
SK-MEL-28 = test system: SK-MEL-28
U-251 = test system: U-251
UACC-62 = test system: UACC-62
COLO 205 = test system: COLO 205
HL-60 = test system: HL-60
HCC 2998 = test system: HCC 2998
BT-549 = test system: BT-549
CCRF-CEM = test system: CCRF-CEM
UACC-257 = test system: UACC-257
LOX IMVI = test system: LOX IMVI
PC-3 = test system: PC-3
MCF7 = test system: MCF7
CAKI-1 = test system: CAKI-1
T47D = test system: T47D
OVCAR-5 = test system: OVCAR-5
A549 = test system: A549
EKVX = test system: EKVX
ACHN = test system: ACHN
RXF 393 = test system: RXF 393
SNB-19 = test system: SNB-19
SN12C = test system: SN12C
OVCAR-4 = test system: OVCAR-4
786-0 = test system: 786-0
KM12 = test system: KM12
SR = test system: SR
K562 = test system: K562
OVCAR-3 = test system: OVCAR-3
SW-620 = test system: SW-620
MDA-MB-231 = test system: MDA-MB-231
SK-MEL-2 = test system: SK-MEL-2
Malme-3M = test system: Malme-3M
Hs-578T = test system: Hs-578T
NCI-H23 = test system: NCI-H23
MDA-MB-435 = test system: MDA-MB-435
UO-31 = test system: UO-31
NCI-H522 = test system: NCI-H522
HCT-116 = test system: HCT-116
RPMI-8226 = test system: RPMI-8226
SF-539 = test system: SF-539
DU-145 = test system: DU-145
SNB-75 = test system: SNB-75
SK-MEL-5 = test system: SK-MEL-5
SF-268 = test system: SF-268
NCI-H460 = test system: NCI-H460

Clc1cc2ncn(C3CCCO3)c2cc1Cl (stereo not given)
GI50 (MDA-N): > 100 µM (inactive) | GI50 (HT-29): 68.4 µM (inactive) | GI50 (HOP-92): 98.9 µM (inactive) | GI50 (NCI/ADR-RES): 99.8 µM (inactive) | GI50 (OVCAR-8): 77.8 µM (inactive) | GI50 (NCI-H226): 54.1 µM (inactive) | GI50 (M14): > 100 µM (inactive) | GI50 (HOP-62): > 100 µM (inactive) | GI50 (HCT-15): > 100 µM | GI50 (MOLT-4): 54 µM (inactive) | GI50 (SF-295): > 100 µM (inactive) | GI50 (TK-10): 96.2 µM (inactive) | GI50 (IGROV-1): 17.3 µM (inactive) | GI50 (SK-OV-3): > 100 µM (inactive) | GI50 (SK-MEL-28): > 100 µM (inactive) | GI50 (U-251): 69.7 µM (inactive) | GI50 (UACC-62): 40.1 µM (inactive) | GI50 (COLO 205): > 100 µM (inactive) | GI50 (HL-60): 78.9 µM (inactive) | GI50 (HCC 2998): 62.8 µM (inactive) | GI50 (BT-549): 19.5 µM (inactive) | GI50 (CCRF-CEM): > 100 µM (inactive) | GI50 (UACC-257): > 100 µM (inactive) | GI50 (LOX IMVI): 54.2 µM (inactive) | GI50 (PC-3): 48.2 µM (inactive) | GI50 (MCF7): > 100 µM (inactive) | GI50 (CAKI-1): 58.1 µM (inactive) | GI50 (T47D): 66.2 µM (inactive) | GI50 (OVCAR-5): > 100 µM (inactive) | GI50 (A549): 75.9 µM (inactive) | GI50 (EKVX): 27.5 µM (inactive) | GI50 (ACHN): 98.9 µM (inactive) | GI50 (RXF 393): 81.3 µM (inactive) | GI50 (SNB-19): > 100 µM (inactive) | GI50 (SN12C): > 100 µM (inactive) | GI50 (OVCAR-4): > 100 µM (inactive) | GI50 (786-0): > 100 µM (inactive) | GI50 (KM12): 28.9 µM (inactive) | GI50 (SR): 48.3 µM (inactive) | GI50 (K562): 96.2 µM (inactive) | GI50 (OVCAR-3): 49.8 µM (inactive) | GI50 (SW-620): 98.2 µM (inactive) | GI50 (MDA-MB-231): > 100 µM (inactive) | GI50 (SK-MEL-2): > 100 µM (inactive) | GI50 (Malme-3M): > 100 µM (inactive) | GI50 (Hs-578T): 48.8 µM (inactive) | GI50 (NCI-H23): > 100 µM (inactive) | GI50 (MDA-MB-435): > 100 µM (inactive) | GI50 (UO-31): 17.7 µM (inactive) | GI50 (NCI-H522): 24.5 µM (inactive) | GI50 (HCT-116): 78.5 µM (inactive) | GI50 (RPMI-8226): 88.9 µM (inactive) | GI50 (SF-539): > 100 µM (inactive) | GI50 (DU-145): > 100 µM (inactive) | GI50 (SNB-75): 26.4 µM (inactive) | GI50 (SK-MEL-5): 43.3 µM (inactive) | GI50 (SF-268): 99.3 µM (inactive)

CC(=O)Nc1ccc(CNc2cc(=O)[nH]c(=O)[nH]2)cc1
GI50 (MDA-N): > 100 µM (inactive) | GI50 (HT-29): > 100 µM (inactive) | GI50 (HOP-92): > 100 µM (inactive) | GI50 (NCI/ADR-RES): > 100 µM (inactive) | GI50 (OVCAR-8): > 100 µM (inactive) | GI50 (NCI-H226): > 100 µM (inactive) | GI50 (M14): > 100 µM (inactive) | GI50 (HOP-62): > 100 µM (inactive) | GI50 (HCT-15): > 100 µM | GI50 (MOLT-4): > 100 µM (inactive) | GI50 (SF-295): > 100 µM (inactive) | GI50 (TK-10): > 100 µM (inactive) | GI50 (IGROV-1): > 100 µM (inactive) | GI50 (SK-OV-3): > 100 µM (inactive) | GI50 (SK-MEL-28): > 100 µM (inactive) | GI50 (U-251): > 100 µM (inactive) | GI50 (UACC-62): > 100 µM (inactive) | GI50 (COLO 205): > 100 µM (inactive) | GI50 (HL-60): > 100 µM (inactive) | GI50 (HCC 2998): > 100 µM (inactive) | GI50 (BT-549): > 100 µM (inactive) | GI50 (CCRF-CEM): > 100 µM (inactive) | GI50 (UACC-257): > 100 µM (inactive) | GI50 (LOX IMVI): > 100 µM (inactive) | GI50 (PC-3): > 100 µM (inactive) | GI50 (MCF7): > 100 µM (inactive) | GI50 (CAKI-1): > 100 µM (inactive) | GI50 (T47D): > 100 µM (inactive) | GI50 (OVCAR-5): > 100 µM (inactive) | GI50 (A549): > 100 µM (inactive) | GI50 (EKVX): > 100 µM (inactive) | GI50 (ACHN): > 100 µM (inactive) | GI50 (RXF 393): > 100 µM (inactive) | GI50 (SNB-19): > 100 µM (inactive) | GI50 (SN12C): > 100 µM (inactive) | GI50 (OVCAR-4): > 100 µM (inactive) | GI50 (786-0): > 100 µM (inactive) | GI50 (KM12): > 100 µM (inactive) | GI50 (SR): > 100 µM (inactive) | GI50 (K562): > 100 µM (inactive) | GI50 (OVCAR-3): > 100 µM (inactive) | GI50 (SW-620): > 100 µM (inactive) | GI50 (MDA-MB-231): > 100 µM (inactive) | GI50 (SK-MEL-2): > 100 µM (inactive) | GI50 (Malme-3M): > 100 µM (inactive) | GI50 (Hs-578T): > 100 µM (inactive) | GI50 (NCI-H23): > 100 µM (inactive) | GI50 (MDA-MB-435): > 100 µM (inactive) | GI50 (NCI-H460): > 100 µM (inactive) | GI50 (UO-31): > 100 µM (inactive) | GI50 (NCI-H522): > 100 µM (inactive) | GI50 (HCT-116): > 100 µM (inactive) | GI50 (RPMI-8226): > 100 µM (inactive) | GI50 (SF-539): > 100 µM (inactive) | GI50 (DU-145): > 100 µM (inactive) | GI50 (SNB-75): > 100 µM (inactive) | GI50 (SK-MEL-5): > 100 µM (inactive) | GI50 (SF-268): > 100 µM (inactive)
